Where two headings read alike, the source gives them in different places.
Legend:
[1] = Cell culture cytotoxicity, L cells; format: cell-based; settings: mouse, L fibroblast cell line, read-out: Tumor Cell Culture Cytotoxicity IC50 Other (L)
Description: (§1) Cells are seeded into 96-well plates using a Perkin-Elmer Pro/pette. SW480 and A427 were seeded at 8,000 cells per well, MCF-7 at 10,000, Widr at 7500, and MOLT-4 at 12,500 cells per well, all in 150 µl of medium. Prior to the addition of drugs, cultures were incubated for 24 hrs at 37°. Compounds were added at 2×concentration in 150 l of medium and each concentration was assayed in triplicate. If DMSO or ethanol were used to solubilize compounds, appropriate controls were run if the concentration exceeded 0.01%. Cultures were incubated for 72 hours (96 hours for SW480 and MCF-7) in a 37° humidified incubator at 5% CO2. Inhibition of cell growth was measured using the MTT dye reduction assay.
(§2) Cell dilutions for a standard curve were prepared from a 72 hour log-phase culture. Serial dilutions were seeded in triplicate in 96-well plates and incubated at 37 degrees for one hour. MTT (3-(4,5-dimethylthiazol-2-yl)-2,5-diphenyltetrazolium bromide) was dissolved in PBS at 5 mg/ml and sonicated for 30 seconds. Using the Perkin Elmer Pro/pette, 200 μl of medium was removed and 100 μl of MTT added to the wells of the standard curve and test plates. Suspension cultures were spun for 5 min at 1000 rpm before removing medium from the wells. Plates were incubated for 1 hour at 370 on a platform shaker. Following this incubation 100 ml of medium was removed from the wells and 100 μl of DMSO added to each well. The plates were sonicated for approximately 10 seconds to solubilize the precipitated formazan dye. The absorbance of each well was measured using a Titertek Multiscan MC microtiter plate reader at 570 nm with a reference wavelength of 750 nm. Data was collected using a Mariachi Seed-2 and stored and analyzed using an IBM-AT and Lotus 1-2-3 software.

[2] = tested on: SW480 human colon adenocarcinoma; experiment: Tumor cell culture cytotoxicity (MTT dye reduction), SW480
Description: SW480 and WiDr colon adenocarcinomas, MCF-7 breast adenocarcinoma, A427 lung carcinoma and MOLT-4 T-cell leukemia were used for the primary screening of compounds. […] MCF-7, A427 and SW480 were grown in the above medium further supplemented with sodium pyruvate.
as §1, §2

[3] = molecular target: T1, Mammalian Thymidylate Synthase (Homo sapiens, UniProt P04818); experiment: Thymidylate synthase inhibition, tritium release assay; format: biochemical
T1 construct: made in house; host or cells: Escherichia coli

[4] = Cell culture cytotoxicity, D98; format: cell-based; settings: human, D98 bone marrow cell line, read-out: Tumor Cell Culture Cytotoxicity IC50 Other (D98)
Description: as §1, §2

[5] = Table C, 5,6-dihydro 3-amino derivatives
[6] = Homo sapiens, SW480, read-out: Tumor Cell Culture Cytotoxicity IC50 SW480, Table E, fully aromatic 3-methyl derivatives
[7] = Homo sapiens, SW480, read-out: Tumor Cell Culture Cytotoxicity IC50 SW480, Table B, fully aromatic 3-amino derivatives
[8] = Homo sapiens, SW480, read-out: Cell Culture Cytotoxicity CCCT SW-480, Table G, dihydrobenzoquinazoline p-aminobenzoylglutamates
[9] = Table D, 5,6-dihydro 3-methyl derivatives
[10] = Homo sapiens, SW480, read-out: Cell Culture Cytotoxicity CCCT SW-480, Table F, fully aromatic p-aminobenzoylglutamates
[11] = Table E, fully aromatic 3-methyl derivatives

T1 sequence (P04818 whole entry): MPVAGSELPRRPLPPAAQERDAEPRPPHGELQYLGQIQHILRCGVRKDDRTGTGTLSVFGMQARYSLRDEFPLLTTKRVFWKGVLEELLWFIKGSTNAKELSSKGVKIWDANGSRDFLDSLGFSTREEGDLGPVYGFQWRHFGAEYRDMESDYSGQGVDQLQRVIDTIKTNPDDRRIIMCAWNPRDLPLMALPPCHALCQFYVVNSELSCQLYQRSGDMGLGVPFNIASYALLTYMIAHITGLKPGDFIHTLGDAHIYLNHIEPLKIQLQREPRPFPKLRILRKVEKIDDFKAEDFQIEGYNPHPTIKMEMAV

| IC50 [3] [µM] | Compound | IC50 [2, 7] [µM] | also measured |
| --- | --- | --- | --- |
| – | CSc1ccc2c(c1)-c1c(nc(N)[nH]c1=O)CC2 [3-Amino-5,6-dihydro-9-(methylthio)benzo(f)quinazolin-1(2H)-one] | – | IC50 at 72 h [1, 5]: 46 µM |
| – | Cc1nc2ccc3ccc(CNc4ccc(C#N)cc4)cc3c2c(=O)[nH]1 [4-(((1,2-Dihydro-3-methyl-1-oxobenzo(f)quinazolin-9-yl)methyl)amino)benzonitrile] | – | IC50 [2, 6]: 0.03 µM |
| – | Nc1nc2c(c(=O)[nH]1)-c1ccc(S(=O)(=O)Nc3ccc(C(=O)N[C@@H](CCC(=O)O)C(=O)O)cc3)cc1CC2 [N-(4-(((3-Amino-1,2,5,6-tetrahydro-1-oxobenzo(f)quinazolin-8-yl)sulfonyl)amino)benzoyl)-L-glutamic acid] | – | IC50 [2, 8]: 25 µM |
| – | Cc1nc(O)c2c(n1)CCc1ccc(I)cc1-2 [5,6-Dihydro-9-iodo-3-methylbenzo(f)quinazolin-1(2H)-one] | – | IC50 at 72 h [4, 9]: 70 µM; IC50 at 72 h [1, 9]: 80 µM |
| 1 to 300 | Nc1nc2ccc3c([N+](=O)[O-])c(Br)ccc3c2c(=O)[nH]1 [3-Amino-8-bromo-7-nitrobenzo(f)quinazolin-1(2H)-one] | 25 | – |
| – | C#CCN(c1ccc(C(=O)N[C@@H](CCC(=O)O)C(=O)O)cc1)S(=O)(=O)c1ccc2c(c1)CCc1nc(N)[nH]c(=O)c1-2 [N-(4-(((3-Amino-1,2,5,6-tetrahydro-1-oxobenzo(f)quinazolin-8-yl)sulfonyl)(2-propynyl)amino)benzoyl)-L-glutamic acid] | – | IC50 [2, 8]: > 50 µM |
| < 1 | CCc1ccc2ccc3nc(N)[nH]c(=O)c3c2c1 [3-Amino-9-ethylbenzo(f)quinazolin-1(2H)-one] | 20 | – |
| < 1 | Cc1ccc2ccc3nc(N)nc(O)c3c2c1 [3-Amino-9-methylbenzo(f)quinazolin-1(2H)-one] | 30 | IC50 at 72 h ([1]; Table B, fully aromatic 3-amino derivatives): 8 µM |
| – | C#CCN(CC#C)S(=O)(=O)c1ccc2c(c1)CCc1nc(N)[nH]c(=O)c1-2 [8-SO2N-(Propargyl)2, 3-Amino-1,2,5,6-tetrahydro-1-oxo-N,N-bis(prop-2-vnyl)benzo[f]quinazoline-8-sulfonamide] | – | IC50 ([2]; read-out: Tumor Cell Culture Cytotoxicity IC50 SW480, Table C, 5,6-dihydro 3-amino derivatives): 60 µM |
| 1 to 300 | Nc1nc2ccc3cc(F)cc(N)c3c2c(=O)[nH]1 [3,10-Diamino-8-fluorobenzo(f)quinazolin-1(2H)-one] | 70 | – |
| – | Cc1nc2ccc3cc(CNc4ccc(C(=O)N[C@@H](CCC(=O)O)C(=O)O)cc4)ccc3c2c(=O)[nH]1 [N-(4-(((1,2-Dihydro-3-methyl-1-oxobenzo[f]quinazolin-8-yl)methyl)amino)benzoyl)-L-glutamic acid] | – | IC50 [2, 10]: > 100 µM |
| < 1 | Nc1nc2ccc3ccc(Br)c(N)c3c2c(=O)[nH]1 [3,10-Diamino-9-bromobenzo(f)quinazolin-1(2H)-one] | 30 | – |
| – | Cc1nc2ccc3ccc(Cl)cc3c2c(=O)[nH]1 [9-Chloro-3-methylbenzo(f)quinazolin-1(2H)-one] | – | IC50 at 72 h [4, 11]: 82 µM; IC50 at 72 h [1, 11]: 80 µM |
| 1 to 300 | Nc1nc2ccc3cc(F)cc([N+](=O)[O-])c3c2c(=O)[nH]1 [3-Amino-8-fluoro-10-nitrobenzo(f)quinazolin-1(2H)-one] | 50 | – |
| – | C=Cc1ccc2ccc3nc(N)[nH]c(=O)c3c2c1 [Example 9-Ethenyl, 3-Amino-9-vinylbenzo[f]quinazolin-1(2H)-one] | 6 | – |
| – | CCSc1ccc2c(c1)-c1c(nc(N)[nH]c1=O)CC2 [3-Amino-9-(ethylthio)-5,6-dihydrobenzo(f)quinazolin-1(2H)-one] | – | IC50 at 72 h [4, 5]: 54 µM; IC50 at 72 h [1, 5]: 33 µM |

| IC50 [3] [µM] | Compound | IC50 [2, 7] [µM] | also measured |
| --- | --- | --- | --- |
| 1 to 300 | Nc1nc2ccc3c(I)cccc3c2c(=O)[nH]1 [3-Amino-7-iodobenzo(f)quinazolin-1(2H)-one] | 10 | – |
| – | Cc1nc2ccc3ccc(CNc4ccc(C(=O)O)cc4)cc3c2c(=O)[nH]1 [4-(((1,2-Dihydro-3-methyl-1-oxobenzo[f]quinazolin-9-yl)methyl)amino)benzoic acid] | – | IC50 [2, 6]: 2.2 µM |
| – | Cc1nc2ccc3ccc(CN(C)c4ccc5c(c4)CN([C@@H](CCC(=O)O)C(=O)O)C5=O)cc3c2c(=O)[nH]1 [(S)-2-(5-(((1,2-Dihydro-3-methyl-1-oxobenzo[f]quinazolin-9-yl)methyl)methylamino)-1-oxo-2-isoindolinyl)glutaric acid] | – | IC50 [2, 10]: 0.5 µM |
| – | Cc1nc2ccc3ccc(Oc4ccc(C#N)cc4)cc3c2c(=O)[nH]1 [4-((1,2-Dihydro-3-methyl-1-oxobenzo[f]quinazolin-9-yl)oxy)benzonitrile] | – | IC50 [2, 6]: > 10 µM |
| 1 to 300 | Nc1nc2ccc3c(N)c(Br)ccc3c2c(=O)[nH]1 [3,7-Diamino-8-bromobenzo(f)quinazolin-1(2H)-one] | 20 | – |
| – | CCN(CC)S(=O)(=O)c1cc2c(cc1Br)CCc1nc(N)[nH]c(=O)c1-2 [3-Amino-8-bromo-N,N-diethyl-1,2,5,6-tetrahydro-1-oxobenzo(f)quinazoline-9-sulfonamide] | – | IC50 ([2]; Homo sapiens, SW480, read-out: Tumor Cell Culture Cytotoxicity IC50 SW480, Table C, 5,6-dihydro 3-amino derivatives): 7.5 µM |
| – | Cc1nc2c(c(=O)[nH]1)-c1cc(S(=O)(=O)N(C)c3ccc(C(=O)N[C@@H](CCC(=O)O)C(=O)O)cc3)ccc1CC2 [N-(4-(Methyl((1,2,5,6-tetrahydro-3-methyl-1-oxobenzo(f)quinazolin-9-yl)sulfonyl)amino)benzoyl)-L-glutamic acid] | – | IC50 [2, 8]: > 50 µM |
| < 1 | Cc1cc2nc(N)nc(O)c2c2cc(Cl)ccc12 [3-Amino-9-chloro-6-methylbenzo(f)quinazolin-1(2H)-one] | 2 | – |
| – | Nc1nc2c(c(=O)[nH]1)-c1cc(S(=O)(=O)Nc3ccc(C(=O)N[C@@H](CCC(=O)O)C(=O)O)cc3)c(Br)cc1CC2 [N-(4-(((3-Amino-8-bromo-1,2,5,6-tetrahydro-1-oxobenzo(f)quinazolin-9-yl)sulfonyl)amino)benzoyl)-L-glutamic acid] | – | IC50 [2, 8]: > 50 µM |
| < 1 | Nc1nc2ccc3ccc(O)cc3c2c(=O)[nH]1 [3-Amino-9-hydroxybenzo(f)quinazolin-1(2H)-one] | 40 | – |
| 1 to 300 | Nc1nc2ccc3c(F)cccc3c2c(=O)[nH]1 [3-Amino-7-fluorobenzo(f)quinazolin-1(2H)-one] | 30 | – |
| < 1 | Nc1ccc2ccc3nc(N)[nH]c(=O)c3c2c1 [3,9-Diaminobenzo(f)quinazolin-1(2H)-one] | 80 | – |
| – | Cc1nc(O)c2c(ccc3ccc(F)cc32)n1 [9-Fluoro-3-methylbenzo(f)quinazolin-1(2H)-one] | – | IC50 at 72 h [4, 11]: 72 µM; IC50 at 72 h [1, 11]: 50 µM |
| – | Cc1nc2ccc3ccc(CNc4ccccc4)cc3c2c(=O)[nH]1 [3-Methyl-9-(anilinomethyl)benzo(f)quinazolin-1(2H)-one] | – | IC50 [2, 6]: 7 µM |
| – | Cc1nc2ccc3c(Cl)cccc3c2c(=O)[nH]1 [7-Chloro-3-methylbenzo(f)quinazolin-1(2H)-one] | – | IC50 at 72 h [1, 11]: 84 µM |
| < 1 | Nc1nc2ccc3ccc(Br)c([N+](=O)[O-])c3c2c(=O)[nH]1 [3-Amino-9-bromo-10-nitrobenzo(f)quinazolin-1(2H)-one] | 20 | – |

| Compound | IC50 [3] [µM] | IC50 [2, 7] [µM] | also measured |
| --- | --- | --- | --- |
| CCN(CC)S(=O)(=O)c1cc2c(ccc3nc(N)[nH]c(=O)c32)cc1Br [3-Amino-8-bromo-N,N-diethyl-1,2-dihydro-1-oxobenzo(f)quinazoline-9-sulfonamide] | 1 to 300 | 2.5 | – |
| Nc1nc2c3ccccc3c3ccccc3c2c(=O)[nH]1 [2-Aminodibenzo(f,h)quinazolin-4(3H)-one] | 1 to 300 | 4 | – |

— patent US6762188B1, “Pharmaceutically active benzoquinazoline compounds” (SmithKline Beecham Corporation, priority 1990, dated 2004)
